Measured values from patent US8440724B2, “Inhibiting neurotransmitter reuptake” (Mayo Foundation for Medical Education and Research, priority 2008, dated 2013).
Entries after “also recorded” stand apart in the source; their conditions may differ. Read-outs that look alike come from different tables or passages of the source.

Legend:
[1] = biological target: T1, human serotonin transporter (hSERT) (Homo sapiens, UniProt P31645); assay: Radioligand binding to cloned hSERT, [3H]citalopram, HEK-293 cell membranes; conditions: for Kd: Geometric Mean ± SEM, HCl salts, read-out: Equilibrium Dissociation Constant (KD) for Transporter Binding, hSERT (S); for Binding at hSERT compared to PRC200-SS: in words
T1 construct: expressed in transfected cells; host or cells: HEK-293, stably transfected
Method: (§1) HEK-293 cells expressing the recombinant hSERT or hDAT were incubated with Dulbecco's modified Eagles medium (MEM) supplemented with 0.1 mM nonessential amino acid solution for MEM, 5% v/v fetal bovine serum and 1 U/mL penicillin/streptomycin solution. Cells expressing the hNET transporter were incubated with Dulbecco's modified Eagles medium supplemented with 10% v/v fetal bovine serum and 100 U/mL penicillin/streptomycin solution and 2 mM L-glutamine. The cells were grown until 70-80% confluent on 175 cm^2 flasks in a humidified 10% CO2/90% air environment at 37° C., with the selecting antibiotic Geneticin sulfate at 250 μg/mL. The cells were incubated in 10% CO2, 90% air at 37° C. and 100% humidity.
(§2) Cell membranes containing hSERT, hNET, or hDAT were prepared from the cell lines to assay ligand binding for each of the transporters. […] The washed cells were incubated for 5 minutes at 37° C. in 10 mL solution 1 containing 100 mM ethylene glycol-bis N,N,N′,N′-tetraacetic acid (EGTA). The cells were then scraped from the flask surface with a rubber spatula, placed into a centrifuge tube, and collected by centrifugation at 1000×g for 5 minutes at 4° C. The resulting supernatant was discarded, and the cell pellet was resuspended in 0.5 to1.0 mL of the appropriate binding buffer (described below). The resuspended cell pellet was homogenized using a Polytron for 10 seconds at setting 6. The resulting homogenate was centrifuged at about 36,000×g for 10 minutes at 4° C. The supernatant was discarded, and the pellet was resuspended in the same volume of the appropriate binding buffer and centrifuged again. The supernatant was discarded, and the final pellet containing cell membranes was resuspended in the appropriate binding buffer and stored at −80° C. until use.
Radioligand binding assays for the indicated transporters were performed as follows. To assess binding to the cloned hSERT, cells expressing hSERT were homogenized in 50 mM Tris-HCl with 120 mM NaCl and 5 mM KCl (pH 7.4). The binding reaction consisted of 10 μg cell membrane protein, […] [^3H]citalopram (citalopram, [N-methyl-^3H], specific activity 79.0 Ci/mmol; PerkinElmer, Boston, Mass.), and varying concentrations of either unlabeled citalopram or the test compound. A reaction to determine non-specific binding consisted of 10 μg cell membrane protein, 0.5 nM [^3H]citalopram, and 1 μM final concentration of unlabeled citalopram. The reactions were incubated at 22° C. for 60 minutes. Following incubation, the reactions were terminated by rapid filtration through separate GF/B filter strips pretreated with 0.2% polyethylenimine in a 48-well Brandel cell harvester. The cell membrane-containing filter strips were then rinsed five times with ice-cold 0.9% NaCl. After rinsing, individual filters were cut from the strip and placed in a scintillation vial containing 6.5 mL of Redi-Safe (Beckman-Coulter, Fullerton, Calif.).
(§3) The program was modified to calculate the Hill coefficient (nH). Data are presented as geometric mean±S.E.M. of at least three independent experiments. One-component models and two-component models were compared using the root mean square error of each fit and the F test.

[2] = biological target: T2, human norepinephrine transporter (hNET) (Homo sapiens, UniProt P23975); assay: Radioligand binding to cloned hNET, [3H]nisoxetine, HEK-293 cell membranes; conditions: for Kd: Geometric Mean ± SEM, HCl salts, read-out: Equilibrium Dissociation Constant (KD) for Transporter Binding, hNET (N)
T2 construct: expressed in transfected cells; host or cells: HEK-293, stably transfected
Method: as §1, §2
To assess binding to the cloned hNET, cells expressing hNET were homogenized in 50 mM Tris-HCl with 300 mM NaCl and 5 mM KCl (pH 7.4). The binding reaction consisted of 5 μg cell membrane protein, 0.5 nM [^3H]nisoxetine (nisoxetine HCl, [N-methyl-^3H], specific activity 82.0 Ci/mmol; Amersham, Arlington Hts., Ill.), and varying concentrations of either unlabeled nisoxetine or the test compound. A reaction to determine non-specific binding consisted of 5 μg cell membrane protein, 0.5 nM [^3H]nisoxetine, and 1 μM final concentration of unlabeled nisoxetine. The reactions were incubated at 22° C. for 60 minutes. Following incubation, the reactions were terminated by rapid filtration through separate GF/B filter strips pretreated with 0.2% polyethylenimine in a 48-well Brandel cell harvester. The cell membrane-containing filter strips were then rinsed five times with ice-cold 0.9% NaCl. After rinsing, individual filters were cut from the strip and placed in a scintillation vial containing 6.5 mL of Redi-Safe (Beckman-Coulter, Fullerton, Calif.).
as §3

[3] = biological target: T3, human dopamine transporter (hDAT) (Homo sapiens, UniProt Q01959); assay: Radioligand binding to cloned hDAT, [3H]WIN35428, HEK-293 cell membranes; conditions: for Binding at hDAT compared to PRC200-SS: in words
T3 construct: expressed in transfected cells; host or cells: HEK-293, stably transfected
Method: as §1, §2
To assess binding to the cloned hDAT, cells expressing hDAT were homogenized in 50 mM Tris-HCl with 120 mM NaCl (pH 7.4). The binding reaction contained 15 μg cell membrane protein, 1 nM [^3H]WIN35428 (WIN35428, [N-methyl-^3H], specific activity 85.9 Ci/mmol; PerkinElmer, Boston, Mass.), and varying concentrations of either unlabeled WIN35428 or the test compound. A reaction to determine non-specific binding contained 15 μg cell membrane protein, 1 nM [^3H]WIN35428, and 10 μM final concentration of unlabeled WIN35428. The reactions were incubated at 22° C. for 1 hour. Following incubation, the reactions were terminated by rapid filtration through separate GF/B filter strips pretreated with 0.2% polyethylenimine in a 48-well Brandel cell harvester. The cell membrane-containing filter strips were then rinsed five times with ice-cold 0.9% NaCl. After rinsing, individual filters were cut from the strip and placed in a scintillation vial containing 6.5 mL of Redi-Safe (Beckman-Coulter, Fullerton, Calif.).
as §3

hSERT, hNET, hDAT = assay: Human transporter binding: rank order and range of potency over the three transporters; conditions: for Potency (rank-order of potency of binding; S = hSERT, N = hNET, D = hDAT): from KD values; for Potency Range (difference between most potent and least potent binding): ratio of KD over hSERT, hNET, hDAT
Source text: as §3

[4] = Geometric Mean ± SEM, HCl salts, read-out: Equilibrium Dissociation Constant (KD) for Transporter Binding, hDAT (D)

T2 sequence (P23975 whole entry): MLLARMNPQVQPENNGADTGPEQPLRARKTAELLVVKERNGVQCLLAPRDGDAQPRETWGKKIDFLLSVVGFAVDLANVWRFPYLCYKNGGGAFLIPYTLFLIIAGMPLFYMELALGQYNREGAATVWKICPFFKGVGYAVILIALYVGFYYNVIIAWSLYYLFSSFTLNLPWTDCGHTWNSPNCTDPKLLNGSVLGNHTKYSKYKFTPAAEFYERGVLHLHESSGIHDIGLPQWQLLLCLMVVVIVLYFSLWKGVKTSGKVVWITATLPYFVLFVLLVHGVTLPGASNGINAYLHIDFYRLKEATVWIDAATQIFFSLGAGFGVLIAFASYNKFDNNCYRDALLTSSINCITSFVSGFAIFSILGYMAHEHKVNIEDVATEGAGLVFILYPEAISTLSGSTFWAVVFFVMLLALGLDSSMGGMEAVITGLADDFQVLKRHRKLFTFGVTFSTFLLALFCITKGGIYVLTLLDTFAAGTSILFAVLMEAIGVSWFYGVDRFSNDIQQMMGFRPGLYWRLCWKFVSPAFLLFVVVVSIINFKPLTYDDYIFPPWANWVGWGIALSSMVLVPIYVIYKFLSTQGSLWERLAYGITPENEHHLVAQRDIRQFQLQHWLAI
T3 sequence (Q01959 whole entry): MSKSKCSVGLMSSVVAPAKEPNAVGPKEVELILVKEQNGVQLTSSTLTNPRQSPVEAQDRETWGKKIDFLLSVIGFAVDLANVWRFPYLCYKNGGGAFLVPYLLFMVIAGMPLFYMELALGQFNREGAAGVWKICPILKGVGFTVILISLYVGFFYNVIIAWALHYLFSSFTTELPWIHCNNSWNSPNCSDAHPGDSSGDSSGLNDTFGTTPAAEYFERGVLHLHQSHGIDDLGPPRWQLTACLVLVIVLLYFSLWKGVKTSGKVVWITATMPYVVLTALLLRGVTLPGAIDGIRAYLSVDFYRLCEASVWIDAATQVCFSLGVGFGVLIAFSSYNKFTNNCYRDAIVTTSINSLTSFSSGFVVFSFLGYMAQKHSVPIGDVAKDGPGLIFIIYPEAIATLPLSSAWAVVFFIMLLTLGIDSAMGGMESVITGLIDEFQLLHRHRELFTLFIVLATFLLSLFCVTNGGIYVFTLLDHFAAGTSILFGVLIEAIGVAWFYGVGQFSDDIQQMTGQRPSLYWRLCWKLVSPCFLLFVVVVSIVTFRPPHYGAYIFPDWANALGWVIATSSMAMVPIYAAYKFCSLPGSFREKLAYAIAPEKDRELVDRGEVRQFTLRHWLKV
T1 sequence (P31645 whole entry): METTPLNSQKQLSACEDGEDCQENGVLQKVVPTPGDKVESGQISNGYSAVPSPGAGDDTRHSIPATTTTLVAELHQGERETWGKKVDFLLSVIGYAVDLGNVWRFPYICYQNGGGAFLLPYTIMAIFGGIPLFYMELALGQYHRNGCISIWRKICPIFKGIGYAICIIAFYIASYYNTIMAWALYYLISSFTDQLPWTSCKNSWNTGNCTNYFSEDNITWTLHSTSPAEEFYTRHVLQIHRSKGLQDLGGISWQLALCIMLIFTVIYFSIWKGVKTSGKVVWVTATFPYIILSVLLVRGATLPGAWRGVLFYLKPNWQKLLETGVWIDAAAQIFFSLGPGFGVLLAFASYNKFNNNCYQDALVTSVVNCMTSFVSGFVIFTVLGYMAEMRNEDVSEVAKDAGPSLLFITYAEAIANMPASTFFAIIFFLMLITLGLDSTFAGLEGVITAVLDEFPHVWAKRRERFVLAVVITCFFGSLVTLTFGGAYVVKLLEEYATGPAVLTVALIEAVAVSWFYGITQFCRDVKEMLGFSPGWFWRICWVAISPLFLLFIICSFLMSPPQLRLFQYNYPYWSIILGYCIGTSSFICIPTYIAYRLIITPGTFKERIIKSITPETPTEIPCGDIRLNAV

Row | Structure (SMILES) | Kd [1] | Binding at hSERT compared to PRC200-SS [1] | Kd [2] | Kd [3] | Potency (rank-order of potency of binding; S = hSERT, N = hNET, D = hDAT) (hSERT, hNET, hDAT) | Potency Range (difference between most potent and least potent binding) (hSERT, hNET, hDAT) | Kd [3, 4] | Binding at hSERT compared to PRC200-SS ([1]; listed as MCJ001-NH2-cyc-SS) | Binding at hNET compared to PRC200-SS ([2]; in words) | Binding at hDAT compared to PRC200-SS [3] | Potency (rank-order of potency of binding; S = hSERT, N = hNET, D = hDAT) (hSERT, hNET, hDAT; listed as MCJ001-NH2-cyc-SS)
1 | CNC[C@@H](c1ccc2ccccc2c1)[C@@H](N)c1ccccc1 (racemic) [MCJ001-NH2-(±)-RR, (2R,3R)-N1-methyl-2-(naphthalen-2-yl)-3-phenylpropane-1,3-diamine] | 1.27 ± 0.06 nM | greater binding at hSERT | 2.5 ± 0.1 nM | 28 ± 4 nM | S > N > D | 22 fold |  |  |  |  | 
2 | CNCC[C@H](Oc1cccc2ccccc12)c1cccs1 [Duloxetine, reference compound] |  |  |  |  | S > N > D |  |  |  |  |  | 
3 | c1ccc([C@H]2OCNC[C@@H]2c2ccc3ccccc3c2)cc1 [MCJ000-OH-Cyc-SS, (5S,6S)-5-(naphthalen-2-yl)-6-phenyl-1,3-oxazinane] | 8 ± 1 nM |  | 99 ± 6 nM |  | S > D > N | 41 fold | 330 ± 50 nM |  |  |  | 
4 | CNC[C@@H](c1ccc2ccccc2c1)[C@@H](Cl)c1ccccc1 [MCJ001-Cl-RR, (2R,3R)-3-chloro-N-methyl-2-(naphthalen-2-yl)-3-phenylpropan-1-amine] | 35 ± 2 nM |  | 234 ± 5 nM |  | S > N > D | 8.3 fold | 290 ± 20 nM |  |  |  | 
5 | CNC[C@@H](c1ccc2ccccc2c1)[C@H](Cl)c1ccccc1 [MCJ001-Cl-SR, (2R,3S)-3-chloro-N-methyl-2-(naphthalen-2-yl)-3-phenylpropan-1-amine] | 55 ± 5 nM |  | 700 ± 50 nM |  | S > D > N | 13 fold | 350 ± 20 nM |  |  |  | 
6 | CNC[C@H](c1ccc2ccccc2c1)[C@H](OCCCCO[C@H](c1ccccc1)[C@H](CNC)c1ccc2ccccc2c1)c1ccccc1 [MCJ001-Dimer4-SS, (2S,2′S,3S,3′S)-3,3′-(butane-1,4-diylbis(oxy))bis(N-methyl-2-(naphthalen-2-yl)-3-phenylpropan-1-amine)] | 94 ± 10 nM |  | 259 ± 5 nM |  | S > D > N | 2.8 fold | 240 ± 1 nM |  |  |  | 
7 | CNC[C@@H](c1ccc2ccccc2c1)[C@@H](F)c1ccccc1 [MCJ001-F-RR, (2R,3R)-3-fluoro-N-methyl-2-(naphthalen-2-yl)-3-phenylpropan-1-amine] | 16 ± 1 nM |  | 170 ± 10 nM | 150 ± 9 nM | S > D > N | 11 fold |  |  |  |  | 
8 | CN1CN[C@H](c2ccccc2)[C@@H](c2ccc3ccccc3c2)C1 [MCJ001-NH2-Cyc-SS, (4S,5S)-1-methyl-5-(naphthalen-2-yl)-4-phenylhexahydropyrimidine] | 0.26 ± 0.02 nM | markedly enhanced potency at binding to hSERT | 13 ± 1 nM | 7.7 ± 0.6 nM | S>D>N | 50 fold |  | greater binding at hSERT | lower potency of binding to hNET | several fold enhanced potency at binding to hDAT; also recorded: several fold more potent binding at hDAT | S > D > N
9 | CNC[C@H](c1ccc2ccccc2c1)[C@@H](N)c1ccccc1 [MCJ001-NH2-RS, (2S,3R)-N1-methyl-2-(naphthalen-2-yl)-3-phenylpropane-1,3-diamine] | 100 ± 7 nM |  | 78 ± 4 nM |  | N > S > D | 4.9 fold | 380 ± 30 nM |  |  |  | 
10 | CN1CO[C@@H](c2ccccc2)[C@H](c2ccc3ccccc3c2)C1 [MCJ001-OH-Cyc-RR, (5R,6R)-3-methyl-5-(naphthalen-2-yl)-6-phenyl-1,3-oxazinane] | 240 ± 20 nM |  | 460 ± 50 nM |  | D > S > N | 2.6 fold | 180 ± 20 nM |  |  |  | 
11 | C[N+]1(C)CN[C@H](c2ccccc2)[C@@H](c2ccc3ccccc3c2)C1.[Cl-] [MCJ002-NH2-Cyc-SS, (4S,5S)-1,1-dimethyl-5-(naphthalen-2-yl)-4-phenylhexahydropyrimidin-1-ium chloride] | 1.9 ± 0.2 nM | greater binding at hSERT | 100 ± 10 nM | 18 ± 2 nM | S > D > N | 53 fold |  |  |  | Enhanced binding to hDAT | 
12 | CCN(CC)C(=O)C1(c2ccccc2)CC1CN (stereo not shown) [Milnacipran, reference compound] |  |  |  |  | S > N > D |  |  |  |  |  | 
13 | CCOc1ccccc1OC(c1ccccc1)C1CNCCO1 (stereo not shown) [Reboxetine, reference compound] |  |  |  |  | N > S > D |  |  |  |  |  | 
